{"source": "patent US20230047825A1", "about": "“ANTIMICROBIAL PEPTIDES” (priority 2019, published 2023)", "key": {"Klebsiella pneumoniae M6": {"system": "Klebsiella pneumoniae M6", "format": "cell-based"}, "[1]": {"system": "Acinetobacter baumannii AYE", "format": "cell-based", "details": "AYE"}, "[2]": {"system": "Pseudomonas aeruginosa NCTC 13437", "assay": "Antibacterial activity assay (broth microdilution MIC)", "format": "cell-based", "details": "PA13437, in µg/mL"}, "[3]": {"system": "VS Enterococcus faecalis NCTC 775", "assay": "Antibacterial activity assay (broth microdilution MIC)", "format": "cell-based"}, "[4]": {"system": "Escherichia coli NCTC 12923", "format": "cell-based"}, "[5]": {"system": "EMR Staphylococcus aureus-16 (EMRSA-16)", "format": "cell-based", "details": "EMRSA16"}, "HeLa": {"system": "HeLa", "assay": "Cytotoxicity assay (XTT)", "format": "cell-based, human", "set-up": "Toxicity HeLa: unit not given beside the values", "how_it_was_run": "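Cells seeded 24 h in EMEM with 10% FBS and NEAA at 37 °C, 10% CO2, then medium replaced with peptide dilutions. After a further 24 h exposure, viability read by XTT tetrazolium staining.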"}, "[6]": {"system": "VR Enterococcus faecium NCTC 12204", "assay": "Antibacterial activity assay (broth microdilution MIC)", "format": "cell-based", "details": "VRE12204, in µg/mL"}, "[7]": {"assay": "Electrophysiology (Port-a-Patch patch-clamp) on model membranes", "details": "DPhPG", "text": "The depth of insertion into each membrane is shown as the Z-position for each residue, averaged over all four peptides, relative to the phosphate group plane in the upper POPE/POPG (A/E/I) or POPG (C/G/K) bilayer leaflet in six MD simulations. Positive or negative values indicate the peptides are below or above the phosphate group. Representative current traces illustrating membrane activity when DPhPE/DPhPG (B/F/J) or DPhPG (D/H/L) model membranes are challenged with each peptide at the indicated concentration (lowest concentration that induced detectable activity). Data is for pleurocidin (A-D), pleurocidin-KR (E-H) and pleurocidin-VA (I-L). Membrane disordering by each peptide in mixed POPE/POPG bilayers is shown with data obtained from ^2H solid-state NMR (M/N) or from MD simulations where order parameters are calculated for all lipids within 4 Å of a peptide (O/P).\nMolecular dynamics simulations. Simulations were carried out on either the ARCHER Cray XC30 supercomputer, or Dell Precision quad core T3400 or T3500 workstations equipped with a 1 kW Power supply (PSU) and two NVIDA PNY GeForce GTX570 or GTX580 graphics cards using Gromacs.^53 The CHARMM36 all-atom force field was used in all simulations^54-56. All simulations were run, as described previously^20 and for a total of 200 nanoseconds and repeated twice, with peptides inserted at different positions and orientations, giving a total of approximately 4.0 μs simulation. Liposome preparation and circular dichroism (CD) spectroscopy. Small unilamellar vesicles (SUV) were produced and far-UV spectra of the peptides obtained as described previously^20 using a Chirascan Plus spectrometer (Applied Photophysics, Leatherhead, UK) with samples maintained at 310 K. For liposome experiments the lipid concentration was 5 mM and a peptide to lipid molar ratio of 1:100 was maintained while the SDS micelles concentration was 20 mM with 200 μM peptide. Electrophysiology experiments (Patch-clamp). Patch clamp experiments were performed using the Port-a-Patch® (Nanion Technologies GmbH, Munich, Germany) with giant unilamellar vesicles (GUVs) composed of DPhPE/DPhPG (60:40, mol:mol) or DPhPG prepared by the electroformation method using the Nanion Vesicle Prep Pro setup (Nanion Technologies GmbH, Munich, Germany) as described previously.^20\nSynergy experiments were performed following a checkerboard protocol."}, "[8]": {"system": "Pseudomonas aeruginosa PA01", "assay": "Antibacterial activity assay (broth microdilution MIC)", "format": "cell-based"}, "[9]": {"system": "EMR Staphylococcus aureus-15 (EMRSA-15)", "format": "cell-based", "details": "EMRSA15"}, "[10]": {"system": "Acinetobacter baumannii ATCC 17978", "format": "cell-based", "details": "in µg/mL; for MIC, Stability in serum (MH): Ab17978"}, "[11]": {"system": "Klebsiella pneumoniae NCTC 13368", "format": "cell-based", "details": "KP13368, in µg/mL"}, "[12]": {"details": "medium and unit not given, in µg/mL"}, "[13]": {"details": "untitled table, medium/unit not given, values match RPMI of Table 2, in µg/mL"}, "[14]": {"details": "untitled table, medium/unit not given, values match RPMI of Table 2"}, "[15]": {"details": "untitled table, medium/unit inferred, values match RPMI of Table 2"}}, "note": "Read-outs that look alike come from different tables or passages of the source. Marks after values point to notes of the source that are not given here. Where a SMILES comes first, the peptide text is derived from it.", "data": [{"smiles": "CC(C)C[C@H](NC(=O)[C@H](Cc1ccc(O)cc1)NC(=O)[C@H](Cc1c[nH]cn1)NC(=O)[C@@H](NC(=O)[C@H](CC(C)C)NC(=O)[C@H](C)NC(=O)[C@H](C)NC(=O)[C@H](CCCCN)NC(=O)CNC(=O)[C@H](C)NC(=O)[C@H](Cc1c[nH]cn1)NC(=O)[C@H](CCCCN)NC(=O)CNC(=O)[C@H](C)NC(=O)[C@H](Cc1c[nH]cn1)NC(=O)[C@H](C)NC(=O)[C@H](C)NC(=O)[C@H](CCCCN)NC(=O)[C@H](CCCCN)NC(=O)[C@H](Cc1ccccc1)NC(=O)[C@H](Cc1ccccc1)NC(=O)[C@H](CO)NC(=O)CNC(=O)[C@H](Cc1c[nH]c2ccccc12)NC(=O)CN)[C@@H](C)O)C(N)=O", "note": "[Pleurocidin-VA] (H-GWGSFFKKAAHAGKHAGKAALTHYL-NH2; N-terminus assumed)", "values": [{"measurement": "MIC, Stability in serum (MH)", "setting": "Klebsiella pneumoniae M6; No serum", "value": 16, "unit": "µg/mL"}, {"measurement": "MIC, Stability in serum (MH)", "setting": "Klebsiella pneumoniae M6; Serum (10% fetal bovine serum)", "value": 8, "unit": "µg/mL"}, {"measurement": "MIC on initial panels", "setting": "Klebsiella pneumoniae M6; [12]", "value": "4-8"}, {"measurement": "MIC", "setting": "Klebsiella pneumoniae M6; [13]", "value": 32}, {"measurement": "MIC, Peptide concentration", "setting": "[1]", "value": 16, "unit": "µg/mL"}, {"measurement": "MIC, Stability in serum (MH)", "setting": "[1]; No serum", "value": 2, "unit": "µg/mL"}, {"measurement": "MIC, Stability in serum (MH)", "setting": "[1]; Serum (10% fetal bovine serum)", "value": 4, "unit": "µg/mL"}, {"measurement": "MIC on initial panels", "setting": "[1]; [12]", "value": 2}, {"measurement": "MIC", "setting": "[1]; [13]", "value": 16}, {"measurement": "MIC, Stability in serum (MH)", "setting": "[2]; No serum", "value": "16*"}, {"measurement": "MIC, Stability in serum (MH)", "setting": "[2]; Serum (10% fetal bovine serum)", "value": ">128"}, {"measurement": "MIC on initial panels", "setting": "[2]; medium and unit not given", "value": 32}, {"measurement": "MIC", "setting": "[2]; [14]", "value": ">32"}, {"measurement": "MIC, Peptide concentration", "setting": "[3]; Mueller-Hinton broth", "value": "64-128 (NG) μg/ml"}, {"measurement": "MIC on initial panels", "setting": "[3]; VSE775, medium and unit not given, in µg/mL", "value": "64-128"}, {"measurement": "MIC, Stability in serum (MH)", "setting": "[4]; EC12923, No serum", "value": 1, "unit": "µg/mL"}, {"measurement": "MIC, Stability in serum (MH)", "setting": "[4]; EC12923, Serum (10% fetal bovine serum)", "value": 1, "unit": "µg/mL"}, {"measurement": "MIC on initial panels", "setting": "[4]; EC12923, medium and unit not given, in µg/mL", "value": 1}, {"measurement": "MIC", "setting": "[4]; EC12923, untitled table, medium/unit not given, values match RPMI of Table 2, in µg/mL", "value": 32}, {"measurement": "MIC, Peptide concentration", "setting": "[4]; NCTC 12923", "value": 1, "unit": "µg/mL"}, {"measurement": "MIC on initial panels", "setting": "[5]; [12]", "value": "64-128"}, {"measurement": "MIC", "setting": "[5]; [15]", "value": "> 32", "unit": "µg/mL"}, {"measurement": "Toxicity HeLa", "setting": "HeLa; unit not given", "value": ">400"}, {"measurement": "Toxicity HeLa (EC50), Peptide concentration", "setting": "HeLa; value printed in parentheses", "value": "(>400) μg/ml"}, {"measurement": "MIC on initial panels", "setting": "[6]; medium and unit not given", "value": "32-64"}, {"measurement": "MIC", "setting": "[6]; [14]", "value": 32}, {"measurement": "Peptide concentration necessary to start membrane activity", "setting": "[7]", "value": 2.5, "unit": "µM"}, {"measurement": "MIC, Stability in serum (MH)", "setting": "[8]; No serum, in µg/mL", "value": "16*"}, {"measurement": "MIC, Stability in serum (MH)", "setting": "[8]; Serum (10% fetal bovine serum), in µg/mL", "value": ">128"}, {"measurement": "MIC on initial panels", "setting": "[8]; [12]", "value": "16-32"}, {"measurement": "MIC", "setting": "[8]; [15]", "value": "> 32", "unit": "µg/mL"}, {"measurement": "MIC on initial panels", "setting": "[9]; medium and unit inferred", "value": 64, "unit": "µg/mL"}, {"measurement": "MIC", "setting": "[9]; [15]", "value": 32, "unit": "µg/mL"}, {"measurement": "MIC on initial panels", "setting": "[10]; AB17978, medium and unit not given", "value": "1-2"}, {"measurement": "MIC", "setting": "[10]; AB17978, untitled table, medium/unit not given, values match RPMI of Table 2", "value": 32}, {"measurement": "MIC, Stability in serum (MH)", "setting": "[10]; No serum", "value": 2}, {"measurement": "MIC, Stability in serum (MH)", "setting": "[10]; Serum (10% fetal bovine serum)", "value": 4}, {"measurement": "MIC, Stability in serum (MH)", "setting": "[11]; No serum", "value": 8}, {"measurement": "MIC, Stability in serum (MH)", "setting": "[11]; Serum (10% fetal bovine serum)", "value": 16}, {"measurement": "MIC on initial panels", "setting": "[11]; medium and unit not given", "value": "4-8"}, {"measurement": "MIC", "setting": "[11]; [14]", "value": 32}]}]}
